Experiments:
[1] = target: Homeodomain-interacting protein kinase 1 (Homo sapiens, UniProt Q86Z02); assay: Selectivity interaction (Kinase panel (Z-LYTE Assay)) EUB0001632a HIPK1; conditions: at 10 µM
[2] = target: T1, NUAK family SNF1-like kinase 2 (Homo sapiens) (UniProt Q9H093); assay: Selectivity interaction (LanthaScreen Eu Kinase Binding Assay) EUB0001632a NUAK2; conditions: at 10 µM
T1 sequence (whole entry): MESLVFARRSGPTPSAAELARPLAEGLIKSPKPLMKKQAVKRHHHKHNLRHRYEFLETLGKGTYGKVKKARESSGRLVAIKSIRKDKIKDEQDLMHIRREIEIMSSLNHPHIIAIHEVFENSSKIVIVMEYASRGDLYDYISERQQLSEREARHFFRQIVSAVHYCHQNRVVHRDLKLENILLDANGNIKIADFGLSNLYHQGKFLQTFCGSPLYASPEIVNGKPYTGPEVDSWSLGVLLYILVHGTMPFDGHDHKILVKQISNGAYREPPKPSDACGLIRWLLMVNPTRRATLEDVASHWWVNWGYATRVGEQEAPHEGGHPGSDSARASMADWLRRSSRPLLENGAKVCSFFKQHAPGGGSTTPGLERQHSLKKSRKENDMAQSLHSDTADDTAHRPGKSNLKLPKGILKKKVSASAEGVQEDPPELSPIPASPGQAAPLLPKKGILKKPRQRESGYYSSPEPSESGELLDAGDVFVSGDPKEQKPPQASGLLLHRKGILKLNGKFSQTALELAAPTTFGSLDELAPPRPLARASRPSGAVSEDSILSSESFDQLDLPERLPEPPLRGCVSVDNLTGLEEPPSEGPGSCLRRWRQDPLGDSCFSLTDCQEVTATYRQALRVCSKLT

[3] = target: Protein polybromo-1 (Homo sapiens) (UniProt Q86U86); assay: Selectivity interaction (Human bromodomain panel (DSF assay)) EUB0000233b PBRM1
[4] = target: 5'-AMP-activated protein kinase catalytic subunit alpha-1 (Homo sapiens, UniProt Q13131); assay: Selectivity interaction (Kinase panel (Invitrogen)) EUB0000639a PRKAA1; conditions: at 200 nM
[5] = target: Protein arginine N-methyltransferase 1 (Homo sapiens, UniProt Q99873); assay: Selectivity interaction (Scintillation proximity assays) EUB0000255b PRMT1
[6] = target: LIM domain kinase 1 (Homo sapiens) (UniProt P53667); assay: Selectivity interaction (ProQinase) EUB0000171b LIMK1
[7] = target: T2, Aurora kinase A (Homo sapiens) (UniProt O14965); assay: Selectivity interaction (ProQinase) EUB0000171b STK6
T2 sequence (whole entry): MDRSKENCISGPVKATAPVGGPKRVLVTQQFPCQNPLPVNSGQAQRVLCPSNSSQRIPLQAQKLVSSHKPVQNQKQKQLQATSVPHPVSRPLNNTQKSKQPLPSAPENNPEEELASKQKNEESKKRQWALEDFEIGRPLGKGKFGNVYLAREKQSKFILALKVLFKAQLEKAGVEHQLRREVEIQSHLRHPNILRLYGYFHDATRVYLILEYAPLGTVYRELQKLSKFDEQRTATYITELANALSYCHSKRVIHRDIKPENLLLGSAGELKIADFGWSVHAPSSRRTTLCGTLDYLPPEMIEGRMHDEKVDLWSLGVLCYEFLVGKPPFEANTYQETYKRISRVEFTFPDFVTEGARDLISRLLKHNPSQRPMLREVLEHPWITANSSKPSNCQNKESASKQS

[8] = target: Ribosomal protein S6 kinase alpha-5 (Homo sapiens) (UniProt O75582); conditions: at 10 µM
[9] = target: Serine/threonine-protein kinase VRK2 (Homo sapiens) (UniProt Q86Y07); assay: Selectivity interaction (KinomeScan (DiscoverX)) EUB0001049a VRK2; conditions: at 1 µM
[10] = system: Epidermal growth factor receptor (Homo sapiens), P00533 [G719C]; assay: (§1) Selectivity interaction (KinomeScan (DiscoverX)) EUB0001049a EGFR; conditions: at 1 µM
[11] = target: Epidermal growth factor receptor (Homo sapiens, UniProt P00533); assay: as §1; conditions: at 1 µM
[12] = system: Epidermal growth factor receptor (Homo sapiens), P00533 [UNDEFINED MUTATION]; assay: as §1; conditions: at 1 µM
[13] = system: Epidermal growth factor receptor (Homo sapiens), P00533 [T790M]; assay: as §1; conditions: at 1 µM
[14] = target: Tyrosine-protein kinase ABL1 (Homo sapiens, UniProt P00519); assay: (§2) Selectivity interaction (Millipore kinase profiler) EUB0000124b ABL1; conditions: at 10 µM
[15] = system: Tyrosine-protein kinase ABL1 (Homo sapiens), P00519 [T315I]; assay: as §2; conditions: at 10 µM
[16] = target: Glycogen synthase kinase-3 alpha (Homo sapiens, UniProt P49840); assay: Selectivity interaction (Millipore kinase profiler) EUB0000124b GSK3A; conditions: at 10 µM
[17] = target: Tyrosine-protein kinase HCK (Homo sapiens) (UniProt P08631); assay: Selectivity interaction (Ambit KINOMEscan and KiNATiv profiling in Jurkat cells) EUB0000090b HCK; type: cell-based; conditions: at 1 µM
[18] = system: eIF-2-alpha kinase GCN2 (Homo sapiens), Q9P2K8 [S808G]; assay: Selectivity interaction (Ambit KINOMEscan and KiNATiv profiling in Jurkat cells) EUB0000090b EIF2AK4; type: cell-based; conditions: at 1 µM
[19] = target: T3, Serine/threonine-protein kinase 17B (Homo sapiens) (UniProt O94768); assay: Selectivity interaction (Kinase panel (DSF assay)) EUB0001558a STK17B
T3 sequence (whole entry): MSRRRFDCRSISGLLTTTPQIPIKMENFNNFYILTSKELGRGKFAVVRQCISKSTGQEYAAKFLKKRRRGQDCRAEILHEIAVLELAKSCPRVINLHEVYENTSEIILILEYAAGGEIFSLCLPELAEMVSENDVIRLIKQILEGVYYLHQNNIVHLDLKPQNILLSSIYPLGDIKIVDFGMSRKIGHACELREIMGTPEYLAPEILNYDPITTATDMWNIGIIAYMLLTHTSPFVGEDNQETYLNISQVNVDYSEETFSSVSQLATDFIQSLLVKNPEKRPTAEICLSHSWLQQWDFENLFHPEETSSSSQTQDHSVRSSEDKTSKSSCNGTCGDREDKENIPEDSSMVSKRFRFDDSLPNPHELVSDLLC

[20] = target: Serine/threonine-protein kinase PAK 2 (Homo sapiens) (UniProt Q13177); assay: Selectivity interaction (KinomeScan (DiscoverX)) EUB0000045b PAK2
[21] = target: Serine/threonine-protein kinase Nek6 (Homo sapiens) (UniProt Q9HC98); assay: Selectivity interaction (KinomeScan (DiscoverX)) EUB0001079a NEK6; conditions: at 1 µM
[22] = target: 5-hydroxytryptamine receptor 1E (Homo sapiens) (UniProt P28566); assay: Selectivity interaction (GPCR panel (PDSP screen)) EUB0001079a HTR1E; conditions: at 10 µM
[23] = system: Receptor-type tyrosine-protein kinase FLT3 (Homo sapiens), P36888 [UNDEFINED MUTATION]; assay: Selectivity interaction (KinomeScan (DiscoverX)) EUB0000229b FLT3; conditions: at 1 µM
Sequence of Receptor-type tyrosine-protein kinase FLT3 (Homo sapiens), P36888 [UNDEFINED MUTATION] (P36888 whole entry, looked up, change not shown): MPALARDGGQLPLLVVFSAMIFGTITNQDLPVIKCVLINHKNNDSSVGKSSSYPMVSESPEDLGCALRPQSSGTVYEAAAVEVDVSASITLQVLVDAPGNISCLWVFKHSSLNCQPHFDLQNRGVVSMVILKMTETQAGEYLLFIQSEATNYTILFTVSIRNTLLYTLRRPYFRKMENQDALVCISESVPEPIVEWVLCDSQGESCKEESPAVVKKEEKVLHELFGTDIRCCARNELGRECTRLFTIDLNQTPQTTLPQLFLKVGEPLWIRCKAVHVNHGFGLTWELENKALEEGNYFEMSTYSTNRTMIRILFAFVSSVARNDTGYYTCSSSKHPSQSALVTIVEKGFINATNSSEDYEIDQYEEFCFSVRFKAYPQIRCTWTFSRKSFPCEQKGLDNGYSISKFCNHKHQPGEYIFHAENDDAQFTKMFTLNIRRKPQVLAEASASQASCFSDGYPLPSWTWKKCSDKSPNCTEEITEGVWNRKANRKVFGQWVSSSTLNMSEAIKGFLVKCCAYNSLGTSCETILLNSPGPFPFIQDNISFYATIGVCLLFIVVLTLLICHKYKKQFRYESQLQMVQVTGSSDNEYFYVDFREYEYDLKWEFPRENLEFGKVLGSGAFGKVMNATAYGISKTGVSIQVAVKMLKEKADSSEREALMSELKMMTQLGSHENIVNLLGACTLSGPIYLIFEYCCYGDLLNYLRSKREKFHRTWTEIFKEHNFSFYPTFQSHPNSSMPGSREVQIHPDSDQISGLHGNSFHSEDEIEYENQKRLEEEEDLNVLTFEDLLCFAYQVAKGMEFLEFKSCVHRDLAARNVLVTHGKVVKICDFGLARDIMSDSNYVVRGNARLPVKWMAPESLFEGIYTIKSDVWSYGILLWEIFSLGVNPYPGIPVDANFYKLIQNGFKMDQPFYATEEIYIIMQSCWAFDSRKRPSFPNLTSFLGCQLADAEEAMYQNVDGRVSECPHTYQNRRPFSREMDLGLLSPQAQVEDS

Sequence of LIM domain kinase 1 (Homo sapiens) (P53667 whole entry, looked up, the tested form may be a part): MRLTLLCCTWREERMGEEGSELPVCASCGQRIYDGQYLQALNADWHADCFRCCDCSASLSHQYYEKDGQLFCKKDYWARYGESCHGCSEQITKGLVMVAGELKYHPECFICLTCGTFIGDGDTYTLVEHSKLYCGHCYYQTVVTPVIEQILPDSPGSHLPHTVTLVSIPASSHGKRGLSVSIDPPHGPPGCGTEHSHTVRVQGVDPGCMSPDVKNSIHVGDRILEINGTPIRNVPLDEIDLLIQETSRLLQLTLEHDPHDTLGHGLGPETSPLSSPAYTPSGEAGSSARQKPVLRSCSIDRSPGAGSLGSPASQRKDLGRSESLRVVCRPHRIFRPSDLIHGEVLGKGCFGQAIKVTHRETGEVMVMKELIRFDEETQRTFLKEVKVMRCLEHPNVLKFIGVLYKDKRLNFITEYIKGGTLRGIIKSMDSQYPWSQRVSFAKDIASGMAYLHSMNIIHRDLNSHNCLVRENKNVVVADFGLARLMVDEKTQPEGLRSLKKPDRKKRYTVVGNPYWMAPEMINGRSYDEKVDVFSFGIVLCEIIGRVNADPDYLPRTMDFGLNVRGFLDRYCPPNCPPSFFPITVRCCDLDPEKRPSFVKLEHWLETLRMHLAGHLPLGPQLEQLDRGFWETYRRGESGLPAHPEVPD
Sequence of Serine/threonine-protein kinase PAK 2 (Homo sapiens) (Q13177 whole entry): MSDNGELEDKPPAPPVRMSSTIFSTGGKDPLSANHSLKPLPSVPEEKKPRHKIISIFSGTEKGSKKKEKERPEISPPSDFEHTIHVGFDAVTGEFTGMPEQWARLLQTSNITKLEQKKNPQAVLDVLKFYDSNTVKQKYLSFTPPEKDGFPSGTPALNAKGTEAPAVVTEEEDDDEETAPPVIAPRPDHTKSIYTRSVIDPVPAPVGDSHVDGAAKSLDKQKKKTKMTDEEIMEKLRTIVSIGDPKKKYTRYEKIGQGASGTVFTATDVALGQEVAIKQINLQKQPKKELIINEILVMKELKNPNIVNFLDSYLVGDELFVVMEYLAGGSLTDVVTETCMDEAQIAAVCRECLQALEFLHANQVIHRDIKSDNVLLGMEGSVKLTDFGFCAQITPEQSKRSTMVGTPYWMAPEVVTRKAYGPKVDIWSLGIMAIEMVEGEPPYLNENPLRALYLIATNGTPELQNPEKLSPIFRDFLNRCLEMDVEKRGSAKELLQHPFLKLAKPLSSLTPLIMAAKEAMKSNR
Sequence of 5'-AMP-activated protein kinase catalytic subunit alpha-1 (Q13131 whole entry, looked up): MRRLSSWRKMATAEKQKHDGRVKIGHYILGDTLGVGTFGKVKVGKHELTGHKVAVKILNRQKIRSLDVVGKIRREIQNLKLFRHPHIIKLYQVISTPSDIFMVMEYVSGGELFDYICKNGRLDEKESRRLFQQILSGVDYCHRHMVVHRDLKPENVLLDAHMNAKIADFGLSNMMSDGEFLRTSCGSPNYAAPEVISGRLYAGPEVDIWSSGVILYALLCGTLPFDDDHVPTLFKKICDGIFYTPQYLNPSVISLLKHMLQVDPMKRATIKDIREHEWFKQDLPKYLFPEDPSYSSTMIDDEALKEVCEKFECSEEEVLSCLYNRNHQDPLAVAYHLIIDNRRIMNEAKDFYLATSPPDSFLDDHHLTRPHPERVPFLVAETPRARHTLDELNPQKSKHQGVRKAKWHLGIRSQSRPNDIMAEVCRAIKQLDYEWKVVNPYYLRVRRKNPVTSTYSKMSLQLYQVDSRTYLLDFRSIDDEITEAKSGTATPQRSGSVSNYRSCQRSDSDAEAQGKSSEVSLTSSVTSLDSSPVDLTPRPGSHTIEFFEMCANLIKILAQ
Sequence of eIF-2-alpha kinase GCN2 (Homo sapiens), Q9P2K8 [S808G] (Q9P2K8 whole entry S808G): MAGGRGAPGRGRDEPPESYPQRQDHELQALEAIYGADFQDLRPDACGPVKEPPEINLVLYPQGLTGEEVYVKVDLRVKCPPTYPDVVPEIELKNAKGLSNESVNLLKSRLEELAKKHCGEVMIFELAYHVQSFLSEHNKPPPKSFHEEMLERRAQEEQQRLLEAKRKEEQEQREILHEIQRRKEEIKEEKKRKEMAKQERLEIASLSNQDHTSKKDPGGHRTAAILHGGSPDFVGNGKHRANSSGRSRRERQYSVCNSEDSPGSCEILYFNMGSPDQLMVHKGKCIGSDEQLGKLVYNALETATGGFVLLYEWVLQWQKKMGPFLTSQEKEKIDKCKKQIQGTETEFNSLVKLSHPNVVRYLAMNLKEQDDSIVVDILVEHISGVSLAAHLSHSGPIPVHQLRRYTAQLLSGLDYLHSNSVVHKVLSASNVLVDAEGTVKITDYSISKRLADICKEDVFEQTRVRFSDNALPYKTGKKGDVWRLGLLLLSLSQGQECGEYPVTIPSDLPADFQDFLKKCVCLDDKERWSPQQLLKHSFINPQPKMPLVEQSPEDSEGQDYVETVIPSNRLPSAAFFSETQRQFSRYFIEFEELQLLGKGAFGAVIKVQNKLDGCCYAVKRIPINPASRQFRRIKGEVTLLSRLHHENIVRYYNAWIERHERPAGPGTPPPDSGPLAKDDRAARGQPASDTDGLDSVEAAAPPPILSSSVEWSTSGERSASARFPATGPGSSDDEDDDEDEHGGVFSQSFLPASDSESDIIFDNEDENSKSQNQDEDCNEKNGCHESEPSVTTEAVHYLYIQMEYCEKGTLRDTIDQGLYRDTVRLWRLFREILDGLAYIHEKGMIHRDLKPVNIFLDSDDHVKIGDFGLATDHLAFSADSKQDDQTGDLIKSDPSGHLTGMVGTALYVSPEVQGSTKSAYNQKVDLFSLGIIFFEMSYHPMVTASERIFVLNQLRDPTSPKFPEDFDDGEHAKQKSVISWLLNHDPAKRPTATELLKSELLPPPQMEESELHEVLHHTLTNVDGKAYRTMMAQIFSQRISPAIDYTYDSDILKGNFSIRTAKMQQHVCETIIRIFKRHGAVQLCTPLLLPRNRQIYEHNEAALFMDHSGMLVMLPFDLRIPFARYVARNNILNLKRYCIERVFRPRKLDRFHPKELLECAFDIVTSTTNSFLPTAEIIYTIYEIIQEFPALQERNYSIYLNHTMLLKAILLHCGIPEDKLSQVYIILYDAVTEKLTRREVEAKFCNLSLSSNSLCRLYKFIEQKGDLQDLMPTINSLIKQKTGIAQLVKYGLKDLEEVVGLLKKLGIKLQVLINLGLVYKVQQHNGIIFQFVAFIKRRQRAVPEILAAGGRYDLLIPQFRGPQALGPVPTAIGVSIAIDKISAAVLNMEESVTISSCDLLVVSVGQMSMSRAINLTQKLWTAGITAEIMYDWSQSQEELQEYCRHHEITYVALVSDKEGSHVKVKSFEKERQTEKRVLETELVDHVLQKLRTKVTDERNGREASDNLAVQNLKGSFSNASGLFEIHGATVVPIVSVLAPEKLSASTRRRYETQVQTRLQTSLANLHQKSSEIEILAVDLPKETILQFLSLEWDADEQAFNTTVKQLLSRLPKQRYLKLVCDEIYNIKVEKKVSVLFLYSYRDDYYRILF
Sequence of Serine/threonine-protein kinase VRK2 (Homo sapiens) (Q86Y07 whole entry): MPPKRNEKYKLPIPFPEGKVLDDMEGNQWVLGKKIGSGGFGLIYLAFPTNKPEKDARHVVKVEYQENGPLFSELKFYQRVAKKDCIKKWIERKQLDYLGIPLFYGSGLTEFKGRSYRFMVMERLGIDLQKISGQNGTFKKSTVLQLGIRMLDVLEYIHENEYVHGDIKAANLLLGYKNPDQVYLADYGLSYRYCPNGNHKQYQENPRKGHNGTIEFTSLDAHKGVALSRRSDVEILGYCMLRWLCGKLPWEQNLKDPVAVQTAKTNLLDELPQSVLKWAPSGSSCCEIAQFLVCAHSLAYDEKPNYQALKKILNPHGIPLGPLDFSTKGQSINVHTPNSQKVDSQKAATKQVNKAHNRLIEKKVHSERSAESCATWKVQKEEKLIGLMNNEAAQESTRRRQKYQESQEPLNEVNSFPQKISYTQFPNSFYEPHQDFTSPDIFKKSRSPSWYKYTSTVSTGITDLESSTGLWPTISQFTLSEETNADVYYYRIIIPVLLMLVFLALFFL

Cn1cc(-n2cnc3c(NCc4nc5cc(Cl)c(Cl)cc5[nH]4)nc(N4CCOCC4)nc32)cn1
% of control [1]: -0.292%
% of inhibition [2]: -12.8%

CN(C)CCCOc1ccc(-c2cc(NCCCn3cccn3)nc(S(C)(=O)=O)n2)cc1
dTM [3]: < 2 K

CC[C@@H]1[C@H](F)C(=O)N[C@@H]1COc1nccc2cc(C(N)=O)c(OC)cc12 [ZIMLOVISERTIB]
% of inhibition [4]: 13.1%

COCCN1CCC(c2cc(CN(C)C(=O)c3cccc(Oc4ccccc4)c3)ccn2)CC1
IC50 [5]: > 10 µM

C=CC(=O)Nc1cccc(C(=O)Nc2ccc(Nc3cc(-c4[nH]c(SC)nc4C)ccn3)cc2)c1
% of control ([6]; at 1 µM): 72%
% of control ([6]; at 5 µM): 46%
% of control ([7]; at 1 µM): 74%
% of control ([7]; at 5 µM): 34%

COCC(=O)NC/C=C/c1ccc2ncnc(Nc3ccc(Oc4ccc(C)nc4)c(C)c3)c2c1 [CP-724714]
% of control [8]: 99%

COc1cc(Nc2nc(C)cc(-c3cnn4nc(OC)ccc34)n2)cc(C(F)(F)F)c1
% of control [9]: 100%
% of control [10]: 100%
% of control [11]: 95%
% of control [12]: 100%
% of control [13]: 93%

CC(=O)Nc1cccc(-n2c(=O)n(C3CC3)c(=O)c3c(Nc4ccc(I)cc4F)n(C)c(=O)c(C)c32)c1
% of control [14]: 95%
% of control [15]: 112%
% of control [16]: 99%

CN(C)C/C=C/C(=O)Nc1ccc(C(=O)N2CCCC(Nc3ncc(Cl)c(-c4c[nH]c5ccccc45)n3)C2)cc1 (stereo unspecified)
% of control [17]: 83%
% of control [18]: 64%

CC(C)(O)[C@H](F)CN1Cc2cc(NC(=O)c3cnn4cccnc34)c(N3CCOCC3)cc2C1=O
dTM [19]: 1.7 K

C=CC(=O)Nc1cc(-n2c(=O)ccc3cnc4ccc(-c5ccc(NS(C)(=O)=O)cc5)cc4c32)ccc1C
% of control ([20]; at 1 µM): 78%
% of control ([20]; at 10 µM): 92%

Nc1cnc(N2CCc3cc(S(=O)(=O)Nc4c(F)cc(Cl)cc4F)cc(N4CCCC4=O)c32)nc1 [TP-020n]
% of control [21]: 100%
% of inhibition [22]: -4.55%

COc1cc(N(C)c2ccnc3ccc(C(F)(F)F)cc23)cc(OC)c1OC
% binding [23]: 93%
